# Experimental data from patent US20160367515A1, “Improved delivery of poorly water soluble drugs with aphafetoprotein stabilized with metal ions” (Oy Safemed Ltd., priority 2013, published 2016).
# Experiments:
# [1] = test system: human hepatoma HepG2 cells; experiment: MTS cell viability assay, hepatoma HepG2 cells; format: cell-based; settings: HepG2, 48 h
# Experimental: Tumor cell lines: human mammary carcinoma MCF-7, human hepatoma HepG2, and rat glioma C6—were originated from the American Type Culture Collection (ATCC). All cell lines were maintained in the complete DMEM or RPMI-1640 media supplemented with L-glutamine and 10% fetal calf serum (FCS) in humidified 5% CO2 atmosphere. For a passage, adherent cells were incubated in the EDTA/0.25% trypsin solution, then washed and plated out for experiments. Prior to addition of reagents, cells were washed with the fresh media with 2% FCS, plated onto 96-well polystyrene plates (Costar, USA) at a density of 3×10^3 cell/well in 180 μL of complete medium with 2% FCS and incubated for 2 h. […] Cell proliferation was assessed by [^3H]-thymidine (^3H-TdR) incorporation assay. […] Cells were harvested and the ^3H-TdR incorporation was measured by using the liquid scintillation counter LKB 1209 Rackbeta (LKB, Sweden). Results were expressed as mean counts per minute (cpm)±standard error of the mean of triplicate cultures or as a percentage of ^3H-TdR incorporation in the experimental cell cultures relatively to the untreated control, as described (Semenkova et al., Tumour Biol. 1997; 18: 261-74).
# Cell viability was assessed by the Promega CellTiter 96 AQueous Non-Radioactive Cell Proliferation MTS assay (Promega, USA) according to manufacturer's instructions. […]
# [2] = test system: mammary carcinoma cell line MCF-7; experiment: MTS cell viability assay, mammary carcinoma MCF-7 cells; format: cell-based, human
# Experimental: Effect of binding of Zn ions to rhAFP and sugar-free rhAFPo species was tested by measuring of their dose-dependent tumor-suppressive effect for mammary carcinoma cell line MCF-7 in vitro, as it was earlier described for natural embryonic eAFP (Dudich et al., Eur. J. Biochem. 1999; 266: 750-761). MCF-7 cells were incubated with various doses of rhAFP (rhAFPo), Zn-rhAFP (Zn-rhAFPo) or with natural embryonic eAFP for 48 h, and thereafter their viability was assessed by the colorimetric MTS assay (FIG. 1A).
# Cell viability was assessed by the Promega CellTiter 96 AQueous Non-Radioactive Cell Proliferation MTS assay (Promega, USA) according to manufacturer's instructions. Cells were incubated with various AFP samples for 48 h as described above, followed by incubation with MTS-test reagents and measuring of the light adsorption of the formasan, appeared in the lysed cell supernatants at 492 nm by using VICTOR-1420 multilabel counter (Wallac, Finland). Intact cell cultures incubated without additions were taken as a control. By such a way the quantity of viable cells capable to internalize MTS dye was determined. Results were expressed as the mean optical density (OD)±the standard error of the mean triplicate cultures. The extent of cell viability was calculated as an average OD in experimental wells after addition of testing compounds in relation to untreated control wells, that was taken as 100%
# To evaluate the efficacy of preparations rhAFP/Ptx and Zn-rhAFP/Ptx we compared the cytotoxic effect of Ptx alone or that in combination with rhAFP or Zn-rhAFP for taxol-resistant human hepatoma HepG2 cells, human breast carcinoma cells MCF-7, and rat glioma C6 cell lines in vitro. RhAFP or Zn-rhAFP were incubated with various doses of Ptx at 37° C. for 1 h to allow complex formation with molecular ratios rhAFP:Ptx 1:1; 1:3 or 1:5 and thereafter the mixtures were introduced into the cell culture for 48 hrs. Cytotoxicity was measured by MTS assay.
# Various doses of rhAFP/Ptx complexes were tested for their effectiveness for inhibition of human mammary carcinoma MCF-7, human hepatoma HepG2, and rat glioma C6 tumor cell growth in vitro. First, we optimized drug concentration and rhAFP amount to the extent that it would not generate an extensive cytotoxic effect alone. Then, the cells were seeded in 96-well plates at a density of 3×10^3/well in 100 μl of medium for 24 hrs to allow adherence. The next day, rhAFP or Zn-rhAFP combined with Ptx at the molecular ratios of 1:1; 1:3 or 1:5 were added into the each well. After 48 h of incubation MTS assays were performed to determine survival rate of the cells. All the experiments were repeated at least three times. The results were expressed as mean±standard error (SE).
# The coefficient of drug interaction (CDI) was calculated to analyze the effects of rhAFP and Ptx combinations. CDI was calculated by the equation: CDI=SRAFP/drug[…]/SRAFP×SRdrug, where SRAFP/drug is the average survival rate of combination group, and SRAFP or SRdrug are the average survival rates of the single agent groups. According to our evaluation, CDI values <1, =1 or >1 indicate that the combinations are synergistic, additive or antagonistic respectively.
# The values of Zn-rhAFP/Ptx or rhAFP/Ptx complex concentration, which inhibited the cell viability by 50% (IC50) when compared to untreated control, were calculated according to the Hill's equation (sigmoid model of concentration-response curve) from the curves of dependence of the relative percentage of viable cells from AFP concentration expressed as mean values from three independent experiments±SD.
# In order to confirm the hypothesis that the combination of Zn-rhAFP and various low water-soluble chemotherapeutic agents would reveal increased anti-tumor efficacy, different cytotoxic compounds were tested in combination with Zn-rhAFP for their cell-killing effect in MCF-7 cells in vitro. […]
compound,measurement,setting,value
"CC(=O)O[C@H]1C(=O)[C@@]2(C)[C@H]([C@H](OC(=O)c3ccccc3)[C@]3(O)C[C@H](OC(=O)[C@H](O)[C@@H](NC(=O)c4ccccc4)c4ccccc4)C(C)=C1C3(C)C)[C@]1(OC(C)=O)CO[C@@H]1C[C@@H]2O [Ptx, paclitaxel]",sensitivity of HepG2 cells (chemoresistance),[1],complete resistance
same,IC50,"[2]; Homo sapiens, MCF7, MCF-7, 48 h, compositions of paclitaxel with rhAFP or Zn-rhAFP, mean of three experiments, read-out: IC50",> 10 µM
same,Coefficient for drug interaction (CDI),"[2]; MCF7 + Zn-rhAFP 1.4 μM (Zn:rhAFP 4:1) + drug, 48 h",0.80
